Entries after “also recorded” stand apart in the source; their conditions may differ. Where two headings read alike, the source gives them in different places.
What was measured:
KBV (MDR+) = assay: MTS proliferation assay, head/neck KBV (MDR+); assay type: cell-based
Protocol: (§1) MTS Proliferation Assay (Promega)
(§2) Day 1: Cells were plated in appropriate growth medium at 5×10^3 per well in 100 ul in 96 well tissue culture plates, Falcon, one for each drug to be tested. Col 1 was blank; it contained no cells, just medium. The plates were incubated overnight at 37° C., 5% CO2 to allow attachment.
(§3) Day 2: Added 120 ul growth medium in wells of 96-well “dilution plates” (one for each drug) and let sit in 37° C. incubator for about 1 hr.
(§4) Thawed DMSO drug stocks (usually at 10 mM). Each drug was diluted 6 ul into a tube with 3 ml growth medium, to 20 μM.
(§5) Aspirated medium from col 12 of a dilution plate; added 200-300 ul of 20 uM drug to wells of col 12. Made serial dilution down this 96-well plate: for a […] dilution pattern, moved 60 ul from col 12 to col 11, mixed 4-5 times (using 8 place multi-pipettor), moved 60 ul to col 10, etc. stopping at col 3.
(§6) Moved 100 ul of medium+drug from dilution plate to a cell plate, i.e. col 1 from drug plate (blank=no cells) to col 1 of cell plate, etc. up to col 12. Col 2 contained cells with no drug. […]
(§7) Day 4 or 5: Terminated the assay 48 to 72 hrs after drug addition. […] When the color turned dark in control wells (col 2), and was still light in col 12, the absorbance at 490 nm was read on a plate reader; the results were used to calculate IC50.

[1] = test system: U251 human CNS tumor cells (glioblastoma); conditions: for survivors day 100: QD1, 5, 9; for median day of death and median survival time: intravenous, q4d×3
Text: Tumor Model: Each animal was implanted with one million U251 human CNS tumor cells from an in vitro cell line by ic injection with a 25 gauge needle. The day of tumor implantation (May 24, 2006) was designated as day 0. A sufficient number of mice were implanted so that animals with body weights in a range as narrow as possible were selected for the trial on the day of treatment initiation (day 1 after tumor implantation). Animals were randomly assigned to the treatment groups and individually identified by earmark codes.
A portion of this solution was then diluted with the complete vehicle to achieve the lower dosing concentration of 1.2 mg/mL. […] Temozolomide (Temodar, Schering Corporation) was prepared on each day of injection in Klucel+tween 80 at a concentration of 4 mg/mL. Temozolomide was administered within 5 minutes of formulation on the basis of exact body weight using a volume of 0.2 mL/10 g of body weight.
Data Collection: Animal health surveillance was conducted and mortality data were collected daily. The animals were weighed twice weekly starting with the first day of treatment.
Study Duration: The study was terminated 100 days after tumor implantation. Any animal found moribund or whose body weight dropped below 14 g was euthanized prior to study termination.
Parameters Evaluated: Number of 100-day survivors, median day of death, and the increase in lifespan based on median day of death and expressed as a percentage (% ILS), median survival time and the % ILS based on median survival time.

[2] = Phase 1 Study S-(1)-01 plasma pharmacokinetics (weekly x3, 28-day cycle); assay type: in vivo, human; conditions: for half-life / AUC(0-t): human, plasma; for AUC(0-t): read-out: AUC0-24
Text: (§8) Both trials have enrolled patients with advanced solid tumors, non-Hodgkin's lymphoma or Hodgkin's lymphoma that have recurred or progressed following at least standard therapy; patients with malignancies for which there is no standard therapy; patients who are not candidates for standard therapy; or patients who have chosen not to pursue standard therapy. […] Study S-(1)-01 is currently being conducted in the United States. […] Study S-(1)-02 is currently being conducted in the United States and in Israel.
Plasma pharmacokinetics of S-(1) were assessed following the first dose of S-(1) in both studies. Plasma samples were analyzed for S-(1) using a validated LC/MS-MS method.

MDA435s = assay: MTS proliferation assay, breast MDA435s; assay type: cell-based
Protocol: as §1, §2, §3, §4, §5, §6, §7

MESSA/Dox (MDR+) = assay: MTS proliferation assay, uterine MESSA/Dox (MDR+); assay type: cell-based; conditions: Homo sapiens, MES-SA
Protocol: as §1, §2, §3, §4, §5, §6, §7

[3] = Crossing of rat blood-brain barrier (FIG. 1); assay type: in vivo
MESSA = assay: MTS proliferation assay, uterine MESSA; assay type: cell-based; conditions: Homo sapiens, MES-SA
Protocol: as §1, §2, §3, §4, §5, §6, §7

[4] = test system: patients with advanced neoplasms; assay: Phase 1 Study S-(1)-01 safety, tolerability and anti-neoplastic activity; assay type: in vivo, human
Text: as §8
(§9) Treatment cohorts consisted of 3 pts and were expanded to 6 pts in the face of dose-limiting toxicity (DLT); pts could remain on study until the development of progressive disease or an intolerable adverse event. DLT was defined as Gr 4 heme toxicity lasting 7 days; febrile neutropenia, Gr 3 thrombocytopenia with bleeding, Gr 3 elevation of transaminases lasting 7 days or any other Gr 3/4 toxicity other than nausea or vomiting.

[5] = test system: patients with advanced neoplasms; assay: Phase 1 Study S-(1)-02 safety, tolerability and anti-neoplastic activity; assay type: in vivo, human
Text: as §8
as §9, with “cohorts” for “cohorts consisted of 3 pts and”

[6] = 14 mg/m^2 i.v., first dose, 50:50 Cremophor EL-P/ethanol formulation
[7] = 28 mg/m^2 i.v., first dose, 50:50 Cremophor EL-P/ethanol formulation
[8] = 56 mg/m^2 i.v., first dose, 50:50 Cremophor EL-P/ethanol formulation
[9] = 85 mg/m^2 i.v., first dose, 50:50 Cremophor EL-P/ethanol formulation
[10] = 127.5 mg/m^2 i.v., first dose, 50:50 Cremophor EL-P/ethanol formulation

C=C[C@H]1O[C@H]2C[C@H]3OC[C@@]3(OC(C)=O)[C@H]3[C@H](OC(=O)c4ccccc4)[C@]4(C(C)(C)O)CC(OC(=O)[C@H](O)C(CC(C)C)NC(=O)OC(C)(C)C)C(C)=C4[C@H](OC(C)=O)[C@H](O1)[C@]23C (stereo partly drawn) [S-(1)]
IC50 (KBV (MDR+)): 553 nM
survivors day 100 ([1]; S-(1) 12 mg/kg): 100 = 0)
median day of death and median survival time ([1]; S-(1) 12 mg/kg/dose): 14.5 days
survivors day 100 ([1]; S-(1) 20 mg/kg): 100 = 0)
median day of death and median survival time ([1]; S-(1) 20 mg/kg/dose): 16 days
effect against the U251 human CNS tumor cells (in words) ([1]; monotherapy or combination as dosed in the study): moderate effect
Cl [2, 6]: 35.5 ± 29.7 L/hr/m^2
Vss [2, 6]: 23.2 ± 74.5 L/m^2
Cl [2, 7]: 43.5 ± 14.5 L/hr/m^2
Vss [2, 7]: 309 ± 161 L/m^2
Cl [2, 8]: 28.6 ± 13.2 L/hr/m^2
Vss [2, 8]: 216 ± 70 L/m^2
Cl [2, 9]: 16.6 ± 9.26 L/hr/m^2
Vss [2, 9]: 142 ± 75.6 L/m^2
Cl [2, 10]: 30.2±11.9 L/hr/m^2
Vss [2, 10]: 239 ± 116 L/m^2
t1/2 [2, 10]: 6.59 ± 2.60 h
half-life ([2]; intravenous, S-(1)-01 study, all dose groups, read-out: Plasma t1/2 values, range over dose groups): 3.45 to 8.4 h
AUC(0-t) ([2]; iv, 14 mg/m2, 14 mg/m^2 i.v., first dose, 50:50 Cremophor EL-P/ethanol formulation): 457 ± 297 ng·h/mL
half-life ([2]; iv, 14 mg/m2, 14 mg/m^2 i.v., first dose, 50:50 Cremophor EL-P/ethanol formulation, read-out: t1/2 (converted)): 8.4 ± 11.5 h
AUC(0-t) ([2]; iv, 28 mg/m2, 28 mg/m^2 i.v., first dose, 50:50 Cremophor EL-P/ethanol formulation): 682 ± 322 ng·h/mL
half-life ([2]; iv, 28 mg/m2, 28 mg/m^2 i.v., first dose, 50:50 Cremophor EL-P/ethanol formulation, read-out: t1/2 (converted)): 3.45 ± 1.09 h
AUC(0-t) ([2]; iv, 56 mg/m2, 56 mg/m^2 i.v., first dose, 50:50 Cremophor EL-P/ethanol formulation): 2070 ± 888 ng·h/mL
half-life ([2]; iv, 56 mg/m2, 56 mg/m^2 i.v., first dose, 50:50 Cremophor EL-P/ethanol formulation, read-out: t1/2 (converted)): 5.66 ± 3.63 h
AUC(0-t) ([2]; iv, 85 mg/m2, 85 mg/m^2 i.v., first dose, 50:50 Cremophor EL-P/ethanol formulation): 5970 ± 3900 ng·h/mL
half-life ([2]; iv, 85 mg/m2, 85 mg/m^2 i.v., first dose, 50:50 Cremophor EL-P/ethanol formulation, read-out: t1/2 (converted)): 5.52 ± 5.26 h
AUC(0-t) ([2]; iv, 127.5 mg/m2, 127.5 mg/m^2 i.v., first dose, 50:50 Cremophor EL-P/ethanol formulation): 4460 ± 2140 ng·h/mL
half-life ([2]; iv, 127.5 mg/m2, 127.5 mg/m^2 i.v., first dose, 50:50 Cremophor EL-P/ethanol formulation, read-out: t1/2 (converted)): 8.6 ± 1.3 h
IC50 (MDA435s): 10 nM
IC50 (MESSA/Dox (MDR+)): 44.8 nM
crossing of blood-brain barrier [3]: crosses rat blood-brain barrier
IC50 (MESSA): 2.9 nM
Dose limiting toxicity ([4]; 185 mg/m^2, weekly x3, 28-day cycle): Grade 3 sensory neuropathy; also recorded: Grade 3 peripheral neuropathy
Drug related adverse events ([4]; 7-185 mg/m^2 weekly x3): nausea, vomiting, diarrhea, fatigue, anorexia, rash, anemia and peripheral neuropathy
anti-neoplastic activity ([4]; patient with pancreatic cancer): Anti-neoplastic activity was seen
dose that can be safely administered ([4]; weekly×3, heavily pre-treated patients): up to 185 mg/m^2
Dose limiting toxicity ([5]; 160 mg/m^2 every 21 days): no DLT was observed
Dose limiting toxicity ([5]; 185 mg/m^2 every 21 days): Grade 3 sensory neuropathy; also recorded: Gr 3 peripheral sensory neuropathy
anti-neoplastic activity ([5]; 1 pt with pancreatic cancer): confirmed response
Drug related adverse events ([5]; 56-185 mg/m^2 every 21 days): mucositis, vomiting, diarrhea, neutropenia, thrombocytopenia, myalgias and peripheral neuropathy
dose that can be safely administered ([5]; every 21 days, heavily pre-treated patients): 160 mg/m^2
